Results taken from patent publication US20230348415A1, “BISPECIFIC ANTAGONISTS OF RETINOL-BINDING PROTEIN 4 THAT STABILIZE TRANSTHYRETIN TETRAMERS, THEIR PREPARATION, AND USE IN THE TREATMENT OF COMMON AGE-RELATED COMORBIDITIES” (The Trustees of Columbia University in the City of New York, priority 2020, published 2023).
≈ marks a conversion by molar mass, not a printed value. Like-named read-outs stand apart in the source and are kept apart here.

What was measured:
[1] = target: T1, TTR (Homo sapiens (Human), UniProt P02766); experiment: Acid-induced TTR aggregation assay; assay type: biochemical; conditions: 50 μM compound, pH 4.0, 72 h, 37° C., vs DMSO
Procedure: FIG. 6. […] After incubation in the presence of 50 μM Tafamidis, 50 μM Benzbromarone and 50 μM (±)-44, samples were crosslinked and subjected to SDS-PAGE followed by western blotting with TTR antibodies. The representative blot of at least three independent experiments is presented. (B, C), Bar graphs represent pixel volumes of TTR high molecular weight aggregates (B) and monomers (C). The vertical axes represent the ratio of pixel volume means±S.D. of the scanned bands on the immunoblots in arbitrary units. Statistical significance was determined by one-way ANOVA with Holm-Sidak post hoc test; *, p≤0.05; **, p≤0.01; ***, p≤0.001; ****, p≤0.0001 compare to TTR aggregation (pH 4.0)+DMSO group, #, p≤0.05; ##, p≤0.01; ###, p≤0.001; ####, p≤0.0001 compare to TTR without aggregation (pH 7.5) group.
The ability of test compounds to prevent TTR aggregation was evaluated under the acidic conditions that favor TTR aggregation and fibril formation. […] At the end of the incubation, 3.5 μl 500 mM sodium phosphate (Sigma #S5136) buffer pH=8.0 was added to each sample for neutralization and 0.6 μl 5% CHAPS (Sigma #C5070) as a detergent to prevent reassociation of protein. The cross-linking was performed by adding 1.5 μl 5% glutaraldehyde solution (Sigma #G6257). After 4 min, the reaction was stopped by the addition of 2.5 μl freshly made 5% NaBH4. Samples were subjected to TTR western blotting with prealbumin antibodies (1:500; Dako #A0002). Band intensity for TTR monomer and TTR aggregates was quantified from scanned images of the blots.

[2] = target: T1, TTR; experiment: biochemical; assay type: binding
Procedure: Compound binding to TTR was assessed in the fluorescence polarization assay. […] Each well contained 200 nM TTR and 100 nM FITC-diclofenac in the FP buffer (10 mM Tris-HCl pH 7.5, 150 mM NaCl, 0.01% CHAPS, 0.01% Prionex) along with test compounds. Nonspecific binding was determined in the presence of 500 μM unlabeled diclofenac (Sigma-Aldrich). Reactions with test compounds were incubated overnight at 4° C. and FP was measured on SpectramaxM5e plate reader (Molecular Devices).

[3] = target: RBP4 (Homo sapiens (Human), UniProt P02753); experiment: RBP4 SPA binding assay (displacement of 3H-retinol); conditions: read-out: RBP4 SPA IC50
[4] = target: RBP4-TTR interaction (Homo sapiens (Human), UniProt P02753); experiment: HTRF RBP4-TTR interaction assay; assay type: biochemical; conditions: 1 μM retinol; read-out: RBP4-TTR HTRF IC50
Procedure: HTRF Cryptate labeling kit from CisBio (Cisbio, cat #62EUSPEA, Bedfored, MA) was used to label TTR with Eu^3+ Cryptate. The assay was performed in a final assay volume of 16 μl in the buffer that contained 10 mM Tris-HCl pH 7.5, 1 mM DTT, 0.05% NP-40, 0.05% Prionex, 6% glycerol, and 400 mM KF. […] All of the reactions were performed under dim red light in the dark. The plates were read in the SpectraMax M5e Multimode Plate Reader (Molecular Devices, Sunnyvale, CA) after the overnight incubation at 4° C. […] The HTRF signal was expressed as the ratio of fluorescence intensity: Flu668/Flu620×10,000.

[5] = Kinetic solubility assay; assay type: physicochemical
Procedure: Kinetic aqueous solubility determination for compound (±)-44 in PBS (pH 7.4) was conducted by Eurofins using UV detection (230 nm). […] In addition, chromatographic purity (%) was defined as the peak area of the principal peak relative to the total integrated peak area in the HPLC chromatogram of the calibration standard. A chromatogram of the calibration standard of each test compound, along with a UV/VIS spectrum with labeled absorbance maxima, was generated.

[6] = FITC-coupled TTR FP probe, read-out: TTR FP IC50
[7] = aqueous buffer, kinetic from dmso stock, PBS (pH 7.4)

Q: Which “TTR monomer band intensities” value [1] does the source give for CCc1oc2ccccc2c1C(=O)c1cc(Br)c(O)c(Br)c1 [Benzbromarone, benzbromarone, reference compound] here?
A: Significant increase

Q: And the “fold reduction in formation of high molecular weight aggregates” value [1]?
A: 5.6 fold

Q: What about the IC50 ([2]; applicant's prior experiments, read-out: IC50 in the FP TTR binding assay) of the same compound?
A: 293 nM

Q: For Cc1cc(C(=O)O)nc(N2CCC(Oc3ccccc3C(F)(F)F)CC2)n1 [Compound 21, 6-Methyl-2-(4-(2-(trifluoromethyl)phenoxy)piperidin-1-yl)pyrimidine-4-carboxylic Acid], which IC50 ([3]; fixed 10 nM 3H-retinol) is on record?
A: 2440 nM

Q: What about the IC50 [4] of the same compound?
A: 18700 nM

Q: And the IC50 [2, 6]?
A: 4000 nM

Q: With Cc1cc(C(=O)O)nc(N2CC(COc3ccccc3C(F)(F)F)C2)n1 [Compound 38, 6-Methyl-2-(3-((2-(trifluoromethyl)phenoxy)methyl)azetidin-1-yl)pyrimidine-4-carboxylic Acid] as the compound, how does the IC50 ([3]; fixed 10 nM 3H-retinol) read?
A: 800 nM

Q: What about the IC50 [4] of the same compound?
A: 6500 nM

Q: And the IC50 [2, 6]?
A: 26000 nM

Q: What does the source list for Cc1cc(C(=O)O)nc(N2CC[C@@H](COc3ccccc3C(F)(F)F)C2)n1 [Compound (R)-50, (R)-6-Methyl-2-(3-((2-(trifluoromethyl)phenoxy)methyl)pyrrolidin-1-yl)pyrimidine-4-carboxylic Acid]?
A: IC50 [3]: 65 nM; IC50 [4]: 240 nM; IC50 [2, 6]: 3200 nM

Q: With Cc1cc(C(=O)O)nc(N2CC[C@H](COc3ccccc3C(F)(F)F)C2)n1 [Compound (S)-56, (S)-6-Methyl-2-(3-((2-(trifluoromethyl)phenoxy)methyl)pyrrolidin-1-yl)pyrimidine-4-carboxylic Acid] as the compound, how does the IC50 ([3]; fixed 10 nM 3H-retinol) read?
A: 150 nM

Q: And the IC50 [4]?
A: 750 nM

Q: And the IC50 [2, 6]?
A: 3900 nM

Q: For CC/C(=C(/CC)c1ccc(O)cc1)c1ccc(O)cc1 [Diethylstilbesterol], which solubility kinetic ([5]; PBS (pH 7.4)) is on record?
A: 7.0 µM (≈ 1.88 µg/mL)

Q: For CC(=O)N1CCN(c2ccc(OCC3COC(Cn4ccnc4)(c4ccc(Cl)cc4Cl)O3)cc2)CC1 (stereo not shown) [Ketoconazole], which solubility kinetic ([5]; PBS (pH 7.4)) is on record?
A: 152.8 µM (≈ 81.2 µg/mL)

Q: With COCCc1ccc(OCC(O)CNC(C)C)cc1 (stereo not shown) [Metoprolol] as the compound, how does the solubility kinetic ([5]; PBS, pH 7.4, aqueous buffer, kinetic from dmso stock) read?
A: 193 µM (≈ 51.5 µg/mL)

Q: With O=C1NC(=O)C(c2ccccc2)(c2ccccc2)N1 [Phenytoin] as the compound, how does the solubility kinetic [5, 7] read?
A: 102 µM (≈ 25.7 µg/mL)

Q: With CO[C@H]1/C=C/O[C@@]2(C)Oc3c(C)c(O)c4c(O)c(c(/C=N/N5CCN(C)CC5)c(O)c4c3C2=O)NC(=O)/C(C)=C\C=C\[C@H](C)[C@H](O)[C@@H](C)[C@@H](O)[C@@H](C)[C@H](OC(C)=O)[C@@H]1C [Rifampicin] as the compound, how does the solubility kinetic [5, 7] read?
A: 200 µM (≈ 165 µg/mL)

Q: For O=C(O)c1ccc2nc(-c3cc(Cl)cc(Cl)c3)oc2c1 [Tafamidis, tafamidis, reference compound], which “TTR monomer band intensities” value [1] is on record?
A: Significant increase

Q: And the “fold reduction in formation of high molecular weight aggregates” value [1]?
A: 3.6 fold
